A short description of series [1]: Cytotoxicity against human HepG2 cells after 24 hrs by MTT assay. It counts as cell-based. For orientation: Tetrazolium dyes change colour on reduction, which living cells bring about.
Series [2] in a line: Selectivity index, ratio of CC50 for human HepG2 cells to MIC90 for Mycobacterium tuberculosis H37Rv ATCC 27294. The note with it: read-out: Selectivity Index. It is filed as toxicity, cell-based.
Series [3] concerns Mycobacterium tuberculosis. The series can be described thus: microbe, parasite or virus in culture. The note with it: H37Rv ATCC 27294, 168 h.
Description: Antimycobacterial activity against Mycobacterium tuberculosis H37Rv ATCC 27294 after 7 days by REMA method
Series [4] deals with Mycobacterium tuberculosis. Description: microbe, parasite or virus in culture. The note with it: 18b, 168 h.
Description: Antimycobacterial activity against non-replicating streptomycin starved Mycobacterium tuberculosis 18b after 7 days by REMA method
The nature of series [5]: Solubility of compound in water. It is filed as physicochemical.
A short description of series [6]: Solubility of compound in PBS buffer. It is filed as physicochemical.
Series [7] is described as follows: Solubility of compound in simulated gastric fluid. It counts as ADME, Stomach.
A short description of series [8]: Solubility of compound in simulated intestinal fluid. It counts as ADME.
Series [9] can be described thus: Cmax in Swiss mouse at 10 mg/kg, po by LC-MS/MS analysis. Set-up: dose 10 mg/kg, route oral. It is filed as ADME, organism-based. The note with it: in vivo.
The nature of series [10]: Tmax in Swiss mouse at 10 mg/kg, po by LC-MS/MS analysis. It counts as ADME, organism-based. The conditions noted are these: in vivo.
A short description of series [11]: AUC(0 to t) in Swiss mouse at 10 mg/kg, po by LC-MS/MS analysis. It counts as ADME, organism-based. The conditions noted are these: in vivo.
The nature of series [12]: Half life in Swiss mouse at 10 mg/kg, po by LC-MS/MS analysis. It counts as ADME, organism-based. The conditions noted are these: in vivo.

Structures are written as SMILES. ≈ marks a conversion by molar mass, not a printed value.

In the case of `O=[N+]([O-])c1ccc(S(=O)(=O)N2CCN(Cc3ccc([N+](=O)[O-])o3)CC2)cc1`, the 50% cytotoxic concentration (CC50) at 24 h in series [1] is more than 50 µM. Besides, the selectivity ratio in series [2] was more than 333. In addition, the MIC90 in series [3] came out at 0.15 µM (≈ 0.0595 µg/mL); in [4] it was 20.1 µM (≈ 7.97 µg/mL).

In the case of `Cc1ccc(S(=O)(=O)N2CCN(Cc3ccc([N+](=O)[O-])o3)CC2)cc1`, the CC50 at 24 h in series [1] is more than 54 µM. In addition, the selectivity ratio in [2] was more than 338. The MIC90 in series [3] is 0.16 µM (≈ 0.0585 µg/mL); in [4] it was more than 21.9 µM.

`CC(=O)c1ccc(N2CCN(Cc3ccc([N+](=O)[O-])s3)CC2)cc1`: the MIC90 in series [3] was more than 11.5 µM.

In turn, `O=[N+]([O-])c1ccc(CN2CCN(c3cccc(Cl)c3)CC2)o1` displayed an MIC90 in [3] of 0.37 µM (≈ 0.119 µg/mL).

Compound `O=[N+]([O-])c1ccc(CN2CCN(c3ccccc3F)CC2)o1` yielded an MIC90 in series [3] of 6.55 µM (≈ 2 µg/mL).

In [3], `COc1cccc(S(=O)(=O)N2CCN(Cc3ccc([N+](=O)[O-])o3)CC2)c1` displayed an MIC90 of 1.3 µM (≈ 0.496 µg/mL).

As to `CS(=O)(=O)N1CCN(Cc2ccc([N+](=O)[O-])o2)CC1`, the MIC90 in series [3] was found to be 23.1 µM (≈ 6.67 µg/mL).

`O=[N+]([O-])c1ccc(CN2CCN(c3ccc(Cl)cc3)CC2)o1` yielded a CC50 at 24 h in series [1] of more than 58 µM. The selectivity ratio in [2] was more than 11600. Further, the MIC90 in series [3] was 0.37 µM (≈ 0.119 µg/mL); in series [4], 1.4 µM (≈ 0.45 µg/mL).

With `O=[N+]([O-])c1ccc(CN2CCN(c3ccccc3)CC2)o1`, the MIC90 in series [3] worked out at 0.2 µM (≈ 0.0575 µg/mL).

In [3], `c1ccc(N2CCN(Cc3ccco3)CC2)cc1` came in with an MIC90 of more than 16.5 µM.

In the case of `O=[N+]([O-])c1ccc(CN2CCN(S(=O)(=O)c3ccc(F)cc3)CC2)o1`, the 50% cytotoxic concentration (CC50) at 24 h in series [1] was more than 54 µM. Also, in series [2], the selectivity ratio was more than 675. Moreover, the solubility in [5] was 108 µM (≈ 40 µg/mL); in [6] it was 54.1 µM (≈ 20 µg/mL); in series [7], 2170 µM (≈ 801 µg/mL); in series [8], 13.5 µM (≈ 4.99 µg/mL). In [9], the Cmax turned out to be 3.26 µM. In [10], the Tmax is 15 min. For the same compound, in series [11], the AUC(0-t) came to 4.22 µM·h. Also, in series [12], the half-life was 87.6 min. Further, the MIC90 in [3] was 0.08 µM (≈ 0.0295 µg/mL); in [4] it was more than 21.6 µM.

Take `Cc1ccc(N2CCN(Cc3ccc([N+](=O)[O-])o3)CC2)cc1`: in series [3], the MIC90 turned out to be 13.2 µM (≈ 3.98 µg/mL).

Take `Cc1cccc(N2CCN(Cc3ccc([N+](=O)[O-])o3)CC2)c1C`: the MIC90 in [3] is 12.7 µM (≈ 4 µg/mL).

In [1], `O=[N+]([O-])c1ccc(CN2CCN(c3ccc(N4CCOCC4)cc3)CC2)o1` returned a half-maximal cytotoxic concentration (CC50) at 24 h of more than 53 µM. For the same compound, the selectivity ratio in series [2] is more than 2650. The compound further had a solubility in [5] of 2.68 µM (≈ 0.998 µg/mL). This compound also had a Cmax in series [9] of 5.34 µM. In series [10], the Tmax is 15 min. In series [11], the area under the curve AUC(0-t) worked out at 4.51 µM·h. The compound further gave a half-life in [12] of 52.8 min. Besides, the MIC90 in series [3] was determined as 0.02 µM (≈ 0.00745 µg/mL); in series [4] it was 0.56 µM (≈ 0.209 µg/mL).

With `N#Cc1cccc(N2CCN(Cc3ccc([N+](=O)[O-])o3)CC2)c1`, the CC50 at 24 h in series [1] is more than 64 µM. Moreover, the selectivity ratio in [2] was more than 3200. Further, the solubility was 256 µM (≈ 80 µg/mL) in [5], 256 µM (≈ 80 µg/mL) in [6], 2560 µM (≈ 801 µg/mL) in series [7] and 32 µM (≈ 9.99 µg/mL) in series [8]. The results for the MIC90 in series [3] and in series [4] were 0.019 µM (≈ 0.00593 µg/mL) and 1.34 µM (≈ 0.419 µg/mL), respectively.

As for `O=[N+]([O-])c1ccc(CN2CCN(c3ccc(F)cc3)CC2)o1`, in series [3], the MIC90 was 3.27 µM (≈ 0.998 µg/mL).

Take `O=[N+]([O-])c1ccc(CN2CCN(c3ccccc3)CC2)s1`: in series [3], the MIC90 is more than 13.1 µM.

For `COc1ccccc1N1CCN(Cc2ccc([N+](=O)[O-])o2)CC1`, the MIC90 in [3] was found to be 25.2 µM (≈ 8 µg/mL).

Turning to `COc1cccc(N2CCN(Cc3ccc([N+](=O)[O-])o3)CC2)c1`, the CC50 at 24 h in series [1] was more than 63 µM. Further, the selectivity ratio in series [2] is more than 1580. The MIC90 in series [3] was 0.047 µM (≈ 0.0149 µg/mL); in [4], 2.11 µM (≈ 0.67 µg/mL).

As for `CO[C@H]1/C=C/O[C@@]2(C)Oc3c(C)c(O)c4c(O)c(c(/C=N/N5CCN(C)CC5)c(O)c4c3C2=O)NC(=O)/C(C)=C\C=C\[C@H](C)[C@H](O)[C@@H](C)[C@@H](O)[C@@H](C)[C@H](OC(C)=O)[C@@H]1C` [RIFAMPIN], the MIC90 in [3] turned out to be 0.07 µM (≈ 0.0576 µg/mL); in series [4], 2.4 µM (≈ 1.98 µg/mL).

In turn, `COc1c(N2CCNC(C)C2)c(F)cc2c(=O)c(C(=O)O)cn(C3CC3)c12` (stereo unspecified) [GATIFLOXACIN] had an MIC90 in series [4] of 2.66 µM (≈ 0.999 µg/mL).

In the case of `COc1ccc(S(=O)(=O)N2CCN(Cc3ccc([N+](=O)[O-])o3)CC2)cc1`, the MIC90 in series [3] was determined as 0.31 µM (≈ 0.118 µg/mL).

For `O=[N+]([O-])c1ccc(CN2CCN(c3ccc(Cl)cc3)CC2)s1`, in series [3], the MIC90 is more than 11.8 µM.

On to `CC(C)(C)c1ccc(N2CCN(Cc3ccc([N+](=O)[O-])o3)CC2)cc1`, for which the CC50 at 24 h in series [1] was more than 63 µM. The selectivity ratio in [2] is more than 700. The solubility in series [5] was 116 µM (≈ 40 µg/mL); in [6] it was 58.2 µM (≈ 20 µg/mL); in [7], 1170 µM (≈ 400 µg/mL); in series [8] it was 2.9 µM (≈ 0.996 µg/mL). Besides, the Cmax in series [9] is 2.35 µM. The Tmax in [10] was found to be 15 min. The same compound returned an exposure AUC(0-t) in [11] of 2.99 µM·h. Also, the half-life in series [12] was 242 min. The MIC90 is 0.0072 µM (≈ 0.00247 µg/mL) in [3] and 12.6 µM (≈ 4.33 µg/mL) in series [4].

With `O=[N+]([O-])c1ccc(CN2CCC(c3ccccc3)CC2)o1`, the MIC90 in series [3] is 0.59 µM (≈ 0.169 µg/mL).

With `O=[N+]([O-])c1ccc(CN2CCN(S(=O)(=O)c3ccc(C(F)(F)F)cc3)CC2)o1`, in [3], the MIC90 was found to be 0.5 µM (≈ 0.21 µg/mL).

Turning to `CC(=O)c1ccc(N2CCN(Cc3ccc([N+](=O)[O-])o3)CC2)cc1`, the MIC90 in series [3] was 0.3 µM (≈ 0.0988 µg/mL).

For `O=[N+]([O-])c1ccc(CN2CCN(c3cccc(C(F)(F)F)c3)CC2)o1`, the MIC90 in series [3] amounted to 0.33 µM (≈ 0.117 µg/mL).

In series [3], `O=[N+]([O-])c1ccc(CN2CCOCC2)o1` had an MIC90 of 31.4 µM (≈ 6.66 µg/mL).

Compound `COc1ccc(N2CCN(Cc3ccc([N+](=O)[O-])o3)CC2)cc1` displayed an MIC90 in series [3] of 0.12 µM (≈ 0.0381 µg/mL).

In series [1], `CC(C)(C)OC(=O)N1CCN(Cc2ccc([N+](=O)[O-])o2)CC1` displayed a CC50 at 24 h of more than 64 µM. Also, in [2], the selectivity ratio was more than 1600. In addition, the solubility was 1290 µM (≈ 400 µg/mL) in series [5], 2570 µM (≈ 800 µg/mL) in series [6], 2570 µM (≈ 800 µg/mL) in [7] and 2570 µM (≈ 800 µg/mL) in [8]. In addition, in [9], the highest level (Cmax) was 3.81 µM. The time of peak concentration (Tmax) in series [10] was 15 min. In [11], this compound showed an exposure AUC(0-t) of 2.71 µM·h. The compound further showed a half-life in series [12] of 101 min. Further, the MIC90 in [3] turned out to be 0.048 µM (≈ 0.0149 µg/mL); in series [4] it was 1.6 µM (≈ 0.498 µg/mL).

In series [1], `O=[N+]([O-])c1ccc(CN2CCN(S(=O)(=O)c3ccccc3)CC2)o1` came in with a half-maximal cytotoxic concentration (CC50) at 24 h of more than 56 µM. Moreover, the selectivity ratio in series [2] is more than 329. Also, the MIC90 was 0.17 µM (≈ 0.0597 µg/mL) in series [3] and more than 22.7 µM in [4].

Broadly, the CC50 is the concentration that lowers cell viability or growth by half. In general, solubility refers to how much of the substance goes into solution per volume. A word on the Cmax: it is the peak of the concentration-time curve. Broadly, the Tmax is the time at which the peak concentration occurs. A word on the AUC(0-t): it is the area under the concentration-time curve up to a stated or last time point. For orientation: half-life means the time needed for the level to fall by half in the phase considered. A low value points to fast loss.

These data come from ChEMBL document CHEMBL3739354, “Nitrofuranyl Methyl Piperazines as New Anti-TB Agents: Identification, Validation, Medicinal Chemistry, and PK Studies” (ACS Med Chem Lett, 2015).
